Data as given in US20060020042A1, “Memantine for the treatment of mild and mild to moderate Alzheimer's disease” (Forest Laboratories, Inc., priority 2004, published 2006).

Tests used:
[1] = system: outpatients with mild-to-moderate Alzheimer's disease; assay: CIBIC-plus in randomized, double-blind, placebo-controlled study; format: in vivo, human; settings: for CIBIC+ Non-Responder, number of patients / CIBIC+ Responder (ratings 1-4), number of patients / CIBIC+ Difference (memantine minus placebo, mean): Week 24, ITT; for CIBIC+ Difference (memantine minus placebo, mean): 20 mg/day
From the text: The present invention is based on results from a randomized, double-blind, placebo-controlled, multi-center, parallel-group study comparing memantine to placebo in outpatients diagnosed with probable AD according to […] criteria. Severity of mild to moderate was established using the Mini-Mental State Examination (MMSE) score (≧10 and ≦22; 0 is the lowest score and 30 is the highest score). In the study of the present invention, there were approximately 400 patients enrolled across 42 centers. Evaluation of primary efficacy was achieved by Alzheimer's Disease Assessment Scale-cognitive subscale (ADAS-cog) and the Clinician's Interview-Based Impression of Change including caregiver information (CIBIC-plus). Secondary efficacy was determined using Alzheimer's disease Cooperative Study-Activities of Daily Living (ADCS-ADL) and Neuropsychiatric Inventory (NPI) criteria. The CIBIC-Plus is a global rating that was derived through an independent, comprehensive interview with the patient and caregiver by an experienced rater/clinician who was barred from knowledge of all other psychometric test scores (after Baseline visit) conducted as part of this protocol and who is not otherwise familiar with the patient. Scores 1-3 indicate improvement; Score 4 indicates no change (as compared to baseline); Scores 5-7 indicate worsening. The CIBIC rater assessed disease severity at Baseline. Using the results from Baseline for reference, the rater then interviewed the patient and caregiver at the end of Weeks 4, 8, 12, 18 and 24 (or upon early termination), to obtain an “Impression of Change” rating. The format for this scale was derived from the Alzheimer's Disease Cooperative Study-Clinician's Global Impression of Change scale (ADCS-CGIC) (Schneider, L. et al, Alzheimer Dis Assoc Disord. 1997; 11 Suppl 2:S22-32). The CIBIC-plus was administered at each clinic visit starting with the Baseline visit. A “responder” is defined as a patient for whom the change from baseline (Visit 2) to Week 24 in ADAS-cog is less than or equal to -4. […] Results were evaluated over seven clinical visits; at initial screening, baseline, and the end of weeks 4, 8, 12, 18 and 24. The population of patients who received at least one dose of double-blind memantine, and completed at least one post-baseline efficacy evaluation of either the ADAS-cog or the CIBIC-plus is designated the “intent-to-treat” (ITT) population. The population of randomized patients who received at least one dose of double-blind study medication is designated the “safety population”. The randomized population designates all patients randomized into the study. This study was conducted as a fixed-dose study. All patients assigned to the memantine group received an initial dose of 5 mg per day; the dose was titrated in 5 mg weekly increments to a final dose of 20 mg/day (administered as two 5 mg tablets twice a day). Study drug was provided as blister packs containing masked study medication such that placebo and memantine tablets were visually identical, and all patients received four tablets of study medication daily (in combinations of memantine 5 mg tablets and matching placebo tablets). Transient dose adjustments were permitted between weeks 3 and 8 for patients experiencing dose-limiting adverse events. However, all patients were required to receive the target dose of 20 mg/day by the end of week 8. Patients not able to tolerate the target dose by week 8 were discontinued from the study. The CIBIC-plus rating was analyzed using the CMH test, controlling for study center ([…]). Descriptive statistics were calculated by visit.

[2] = system: outpatients with mild-to-moderate Alzheimer's disease; assay: NPI in randomized, double-blind, placebo-controlled study; format: in vivo, human; settings: for NPI total Difference (memantine minus placebo, LS mean): Week 24, ITT, 20 mg/day
Procedure: In the study of the present invention, there were approximately 400 patients enrolled across 42 centers. Evaluation of primary efficacy was achieved by Alzheimer's Disease Assessment Scale-cognitive subscale (ADAS-cog) and the Clinician's Interview-Based Impression of Change including caregiver information (CIBIC-plus). Secondary efficacy was determined using Alzheimer's disease Cooperative Study-Activities of Daily Living (ADCS-ADL) and Neuropsychiatric Inventory (NPI) criteria. The NPI is a validated scale that assesses behavioral disturbances in patients with dementia (Cummings et al., Neurology. 1994; 44(12):2308-14). It provides both a total score (sum of 12 domain scores) as well as scores for each subscales (e.g., delusions, hallucinations, agitation/aggression, depression/dysphoria, anxiety, disinhibition, elation/euphoria, apathy/indifference, irritability/lability, aberrant motor activity). For each subscale, both the frequency and the severity of each behavior is measured. The NPI total score ranges from 0 (higher functioning status) to 144 (lower functioning status). The NPI is based upon responses from the caregiver. The NPI was administered at Baseline and the end of Weeks 12 and 24 (or upon early termination). The study consisted of 1-2 weeks of single-blind placebo treatment followed by 24 weeks of double-blind treatment. Results were evaluated over seven clinical visits; at initial screening, baseline, and the end of weeks 4, 8, 12, 18 and 24. This study was conducted as a fixed-dose study. All patients assigned to the memantine group received an initial dose of 5 mg per day; the dose was titrated in 5 mg weekly increments to a final dose of 20 mg/day (administered as two 5 mg tablets twice a day). Study drug was provided as blister packs containing masked study medication such that placebo and memantine tablets were visually identical, and all patients received four tablets of study medication daily (in combinations of memantine 5 mg tablets and matching placebo tablets). […] Descriptive statistics were calculated by visit. […]

NMDA receptor = settings: uncompetitive antagonist; cited from earlier work
[3] = LOCF, ITT, of 196 patients randomized to memantine

CC12CC3CC(C)(C1)CC(N)(C3)C2 [Memantine, 1-amino-3,5-dimethyladamantane]
CIBIC-plus marked improvement, number of patients [1, 3]: 9 patients | CIBIC-plus marked worsening, number of patients [1, 3]: 1 patients | CIBIC-plus moderate improvement, number of patients [1, 3]: 27 patients | CIBIC-plus moderate worsening, number of patients [1, 3]: 18 patients | CIBIC-plus marked worsening, number of patients ([1]; OC analysis): 1 patients | CIBIC-plus minimal improvement, number of patients ([1]; OC analysis): 24 patients | CIBIC-plus moderate improvement, number of patients ([1]; OC analysis): 8 patients | CIBIC-plus moderate worsening, number of patients ([1]; OC analysis): 17 patients | CIBIC+ Non-Responder, number of patients ([1]; LOCF analysis): 64 patients | CIBIC+ Responder (ratings 1-4), number of patients ([1]; LOCF analysis): 132 patients | CIBIC+ Difference (memantine minus placebo, mean) ([1]; LOCF analysis, p=0.004): −0.32 | CIBIC+ Non-Responder, number of patients ([1]; LOCF analysis, listed as Mem): 97/64 patients | CIBIC+ Responder (ratings 1-4), number of patients ([1]; LOCF analysis, listed as Mem): 100/132 patients | CIBIC+ Non-Responder, number of patients ([1]; OC analysis): 56 patients | CIBIC+ Responder (ratings 1-4), number of patients ([1]; OC analysis): 108 patients | CIBIC+ Difference (memantine minus placebo, mean) ([1]; OC analysis, p=0.030): −0.26 | CIBIC+ Non-Responder, number of patients ([1]; OC analysis, listed as Mem): 81/56 patients | CIBIC+ Responder (ratings 1-4), number of patients ([1]; OC analysis, listed as Mem): 85/108 patients | CIBIC-plus, memantine-treated group compared with placebo ([1]; by week 12, LOCF and OC): statistically significant improvement | individual NPI criteria significantly better than in the placebo-treated group ([2]; LOCF, week 24): three | NPI total Difference (memantine minus placebo, LS mean) ([2]; LOCF analysis, p=0.011): −3.5 | NPI total Difference (memantine minus placebo, LS mean) ([2]; OC analysis, p=0.143): −2.1 | affinity for the NMDA receptor (NMDA receptor): moderate affinity
